In one assay the target is Albumen lysozyme (Gallus gallus, UniProt P00698). The assay can be described thus: Laccase-mediated coupling of structures with DOPA residue to a protein, MS analysis. As to conditions: for formation of covalent adduct with lysozyme: equimolar and ten-fold excess, laccase, overnight, room temperature, pH 7.0; for conversion of lysozyme to the adduct: excess of the DOPA compound (ten-fold), FIGS. 5 and 8. Format: biochemical. The procedure: The following solutions were prepared in 10 mM phosphate buffer pH 7.0: • a) Albumen lysozyme 1 mg/ml, corresponding to 70 μM (solution 1) • b) Compound A (biotin-DOPA) 1 mg in 3 mL, corresponding to 700 μM (solution 2) and a 70 μM dilution (solution 3) • c) Compound B (biotin-RGD-DOPA) 1,2 mg in 2 ml, corresponding to 700 μM (solution 4) and a 70 μM dilution (solution 5) • d) Laccase (Trametes vers., ASA Spezialenzyme GmbH) 1 mg/ml corresponding to 20 u/ml (solution 6)
The reaction was started by mixing 500 μl lysozyme solution (Solution 1) with in each case 500 μl of solution 2 to solution 5 (i.e. in each case equimolar and ten-fold excess) and addition and mixing in 10 μl/0.2 u laccase (solution 6). Lysozyme with 500 μl 10 mM phosphate buffer pH 7.0 and laccase (solution 6) was used as control. The samples were incubated overnight at room temperature and the next day an aliquot was freed from low molecular weight constituents and salts using a desalting column (Micro Bio-Spin P6, BioRad) equilibrated with deionised waters.
The thereby prepared reaction product was analysed in an AB Sciex TOF/TOF™ 5800 system.

The test system of assay [1] is cell lines expressing αvβ6 integrin (HUVEC, SVEC, HT1299). The assay can be described thus: Dependence of the binding on the polypeptide concentration (laccase-activated marking, FACS). The class given is cell-based. As to conditions: different concentrations, FIG. 2. How it is done:
(§1) The cells were in each case washed twice with PBS and then taken up in an amount of ca. 10^5 cells/ml in PBS. 950 μl portions of the solution were added to 1-ml-FACS-test tubes. Marked polypeptides with and without prior treatment with laccase, were then added according to the following Table 1.
(§2) For this, 40 μl NaAc solution, 105 μl water, 15 μl peptide solution and 120 μl laccase were added in a typical […] polypeptide batch. Samples without laccase contained the corresponding additional volume of water, samples with other polypeptide concentrations contained correspondingly more polypeptide solution (cf. Example 2). After an incubation time of 1 minute 50 μl were added in each case to the cell suspensions or placed in the FACS test tubes.
(§3) After an incubation time of at least 15 minutes the cells were washed three times with 2 ml PBS in the test tube and the fluorescence of the cells was then measured on a cell sorter. The total fluorescence of the cells was measured.
Corresponding to the above experimental procedure (Example 1) various cell lines, all of which express αvβ6 integrin, were marked with different polypeptide concentrations.

For assay [2], the system named is integrin αvβ6 expressing cells (HT1299, SVEC). Put plainly: Marking of integrin αvβ6 expressing cells with DOPA/FITC polypeptide, with and without laccase, FACS fluorescence after washing. Format: cell-based. As to conditions: 5 μM polypeptide, without addition of laccase, washed three times with PBS, FIG. 1. How it is done:
Marking of integrin αvβ6 expressing cells:
Cell type: Cell lines HT1299 (lung tumor), HUVEC, SVEC
Polypeptide for the marking: Ac-SPRGDLAVLGHK(FITC)GG-DOPA-G, SEQ ID NO: 1
Polypeptide solution: 4 mg/ml polypeptide in water corresponding to 2 mM
20 mg/ml laccase from Trameters versicolor, 20 U/mg, ASA Spezialenzyme GmbH, Wolfenbüttel
All FAC measurements were made on a Cytomics FC500 (Beckman Coulter).
as §1, §2, §3

Non-standard residues stand in square brackets, D forms with d. Residues, ends and D or L forms follow the SMILES beside them. No end group written: not given here. *: point of attachment. FITC = O=C1OC2(c3ccc(O)cc3Oc3cc(O)ccc32)c2ccc(NC(=S)*)cc21; Dopa = N[CH](Cc1ccc(O)c(O)c1)C(=O)O; X1 = O=C1NC2CSC(CCCCC(=O)*)C2N1

The values that follow come from US9193986B2, “Method for marking or immobilising a target structure” (Fraunhofer-Gesellschaft Zur Forderung Der Angewandten …, priority 2012, dated 2015).

Take `NC(=O)C(Cc1ccc(O)c(O)c1)NC(=O)CCCCC1SCC2NC(=O)NC21` (stereo not drawn) [Compound A]: on Albumen lysozyme, the “formation of covalent adduct with lysozyme” value is “expected reaction products were found” and the “conversion of lysozyme to the adduct” value is “a complete conversion was not achieved”.

Regarding `N=C(N)NCCCC(NC(=O)CNC(=O)CCCCC1SCC2NC(=O)NC21)C(=O)NCC(=O)NC(CC(=O)O)C(=O)NC(Cc1ccc(O)c(O)c1)C(=O)NCC(=O)O` (stereo not drawn) [Compound B, biotin-RGD-DOPA] (X1-GRGD[Dopa]G-OH; configuration not given here), on Albumen lysozyme, the “formation of covalent adduct with lysozyme” value is on record as “expected reaction products were found” and the “conversion of lysozyme to the adduct” value was “a complete conversion was not achieved”.

“Ac-SPRGDLAVLGHK(FITC)GG-DOPA-G (Ac-SPRGDLAVLGHK(FITC)GG[Dopa]G) [polypeptide]”: the “binding to cells as a function of polypeptide concentration” value in assay [1] is given as “bind depending on the concentration”. Further, the “retention of the fluorescent polypeptide on the cells after washing” value in assay [2] is recorded as “can be washed again from the cells”.
